Consider three molecules from patent US20130217694A1, “METHOD OF REDUCING THE SEVERITY OF INFLAMMATORY DERMATOLOGICAL CONDITIONS” (Allergan, Inc.., priority 2003, published 2013).

Assay [1] has as its target T1, human α-2A receptor (Homo sapiens, UniProt P08913).
T1 sequence (P08913 1-465): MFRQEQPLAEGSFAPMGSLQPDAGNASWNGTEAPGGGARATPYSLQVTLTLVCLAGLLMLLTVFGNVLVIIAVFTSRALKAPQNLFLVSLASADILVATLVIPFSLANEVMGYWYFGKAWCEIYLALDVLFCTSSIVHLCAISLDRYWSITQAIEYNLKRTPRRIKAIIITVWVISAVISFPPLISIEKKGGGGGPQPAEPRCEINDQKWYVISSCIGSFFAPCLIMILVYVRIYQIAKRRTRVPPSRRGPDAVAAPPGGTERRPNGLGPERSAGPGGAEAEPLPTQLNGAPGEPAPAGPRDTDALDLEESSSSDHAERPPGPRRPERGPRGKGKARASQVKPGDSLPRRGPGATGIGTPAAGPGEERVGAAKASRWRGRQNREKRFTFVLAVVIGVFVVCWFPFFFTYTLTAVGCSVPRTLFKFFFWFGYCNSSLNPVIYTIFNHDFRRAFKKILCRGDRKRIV
The conditions noted are these: percent efficacy relative to brimonidine. On the procedure: (§1) The human α-2A and α-2C receptor supernatants were added, in varying amounts, to naive PC12 cells, which were then incubated for 48 hours. The transduced cell populations were replated at a lower density and grown in media containing 100 ug/ml puromycin.
(§2) Intracellular cAMP measurement was performed as follows. PC12 cells stably expressing the human α-2A or human α-2C adrenergic receptors were plated in 96-well poly-D-lysine coated plates at a density of 30,000 cells per well in 100 μl DMEM supplemented with 10% horse serum, 5% heat inactivated fetal bovine serum, 1% antibiotic-antimycotic and 100 μg/ml puromycin. Cells were grown overnight at 37° C. and 5% CO2. Cells were dosed by adding an equal volume of media containing IBMX (to a final concentration of 1 mM), forskolin (to a final concentration of 10 μM) and the appropriate drug dilution (to a final concentration of between 10^−5 M and 10^−12 M). After a 10 minute incubation, the media was aspirated and the cells lysed with 200 μl lysis buffer (Amersham Biosciences; Piscataway, N.J.). Plates were stored at −20° C. for up to 24 hours prior to assay. Intracellular cAMP was determined using the Biotrak cAMP enzyme immunoassay system (Amersham Biosciences) according to the manufacturer's instructions. Plates were read on a plate reader at 450 nm.

Assay [2] addresses T2, human α-2C receptor (Homo sapiens, UniProt P18825).
T2 construct: expressed in transfected cells; host or cells: PC12 cells (retroviral vector pCL BABE Puro)
T2 sequence (P18825 1-462): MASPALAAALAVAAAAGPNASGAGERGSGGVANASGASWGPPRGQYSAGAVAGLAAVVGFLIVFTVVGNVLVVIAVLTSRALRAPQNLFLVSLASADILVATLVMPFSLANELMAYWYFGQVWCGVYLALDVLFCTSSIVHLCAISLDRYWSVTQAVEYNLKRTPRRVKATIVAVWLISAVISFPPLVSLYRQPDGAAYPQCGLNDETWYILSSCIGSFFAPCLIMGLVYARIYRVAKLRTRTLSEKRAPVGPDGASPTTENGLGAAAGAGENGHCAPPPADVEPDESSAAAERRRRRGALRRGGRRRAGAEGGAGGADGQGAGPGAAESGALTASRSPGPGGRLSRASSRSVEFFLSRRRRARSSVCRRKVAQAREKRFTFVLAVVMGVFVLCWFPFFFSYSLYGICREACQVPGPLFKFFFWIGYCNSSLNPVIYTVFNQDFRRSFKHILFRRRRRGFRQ
Description: Inhibition of forskolin-induced cAMP accumulation in PC12 cells expressing human α-2C receptor. In kind it is cell-based. The note with it: percent efficacy relative to brimonidine. On the procedure:
as §1, §2

Assay [3] deals with T3, bovine α-1A adrenergic receptor (Bos taurus, UniProt P18130).
T3 sequence (P18130 1-466): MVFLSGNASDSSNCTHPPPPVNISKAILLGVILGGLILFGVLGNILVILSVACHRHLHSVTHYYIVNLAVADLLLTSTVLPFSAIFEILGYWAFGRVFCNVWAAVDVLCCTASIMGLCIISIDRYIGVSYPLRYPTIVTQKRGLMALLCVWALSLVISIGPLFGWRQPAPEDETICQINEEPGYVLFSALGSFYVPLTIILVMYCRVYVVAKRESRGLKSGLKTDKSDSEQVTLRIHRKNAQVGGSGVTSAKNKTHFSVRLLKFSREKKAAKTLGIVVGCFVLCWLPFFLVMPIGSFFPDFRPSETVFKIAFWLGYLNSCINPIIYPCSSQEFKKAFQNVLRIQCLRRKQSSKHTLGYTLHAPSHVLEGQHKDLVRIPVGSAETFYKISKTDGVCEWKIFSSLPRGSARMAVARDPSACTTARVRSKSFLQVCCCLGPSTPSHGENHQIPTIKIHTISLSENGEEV
Description: Intracellular Ca+2 response in HEK293 cells expressing bovine α-1A receptor. It counts as cell-based. The note with it: for bovine α1A % E: percent efficacy relative to phenylephrine; for agonist activity at the α-1A receptor: result in words. On the procedure: (§3) The bovine α-1A and hamster α-1B receptor supernatants were added, in varying amounts, to naive HEK293 cells, which were then incubated for 48 hours. The transduced cell populations were replated at a lower density and grown in media containing 0.25 ug/ml puromycin. […] Receptor density was measured in a prazosin radioligand binding assay.
(§4) Intracellular Ca^+2 responses were measured as follows in HEK293 cells stably expressing either the bovine α-1A or hamster α-1B adrenergic receptor. Between 40,000 to 50,000 cells were plated per well in 96-well poly-D-lysine coated plates in 0.2 ml DMEM containing 10% heat-inactivated fetal calf serum, 1% antibiotic-antimycotic and 0.25 μg/ml puromycin one day prior to use. Cells were washed twice with HBSS supplemented with 10 mM HEPES, 2.0 mM CaCl2 and 2.5 mM probenicid, and subsequently incubated at 37° C. for 60 minutes with 4 μM Fluo-4 (Molecular Probes; Eugene, Oreg.). The extracellular dye was washed from the plates twice prior to placing the plates in the fluorometric imaging plate reader (FLIPR; Molecular Devices; Sunnyvale, Calif.). Ligands were diluted in HBSS and aliquoted into a 96-well microplate. Drugs were tested over the concentration range of 0.64 nM to 10,000 nM. Data for Ca^+2 responses were obtained in arbitrary fluorescence units.

Assay [4] concerns the target T4, hamster α-1B adrenergic receptor (Mesocricetus auratus, UniProt P18841).
T4 sequence (P18841 1-515): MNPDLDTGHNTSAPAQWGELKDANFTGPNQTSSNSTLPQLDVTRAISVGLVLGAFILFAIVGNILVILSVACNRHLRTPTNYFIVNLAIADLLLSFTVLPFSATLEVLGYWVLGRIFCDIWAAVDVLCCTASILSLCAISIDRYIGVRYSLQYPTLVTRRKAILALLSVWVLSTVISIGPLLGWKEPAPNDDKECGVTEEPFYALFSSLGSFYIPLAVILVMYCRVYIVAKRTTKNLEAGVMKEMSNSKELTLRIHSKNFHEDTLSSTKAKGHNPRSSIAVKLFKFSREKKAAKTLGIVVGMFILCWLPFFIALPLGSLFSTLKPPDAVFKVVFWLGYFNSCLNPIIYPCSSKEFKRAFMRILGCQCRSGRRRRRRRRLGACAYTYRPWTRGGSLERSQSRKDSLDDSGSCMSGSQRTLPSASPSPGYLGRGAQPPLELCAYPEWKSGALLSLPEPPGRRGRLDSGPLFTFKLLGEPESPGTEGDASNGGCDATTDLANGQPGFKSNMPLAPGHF
It counts as cell-based. The note with it: for hamster α1B % E: percent efficacy relative to phenylephrine; for agonist activity at the α-1B receptor: result in words. On the procedure:
as §3, §4

Assay [5] concerns mice. Description: Phenylephrine-induced tactile hypersensitivity in mice. In kind it is in vivo, mouse. On the procedure:
To dissect the contribution of the sympathetic nervous system to sensory sensitization, mouse models having different mechanisms of sensory sensitization were developed. Tactile hypersensitivity was measured in mice following intrathecal or intraperitoneal injection of an inducing agent by scoring the response to light stroking of the mouse flank with a paintbrush.
Spinal drug injections were performed as follows. Mice (20-30 g) were injected intrathecally as described in Hylden and Wilcox, Eur. J. Pharmacol. 67:313-316 (1980). Briefly, a sterile 30-gauge ½ inch needle attached to a microsyringe was inserted between the L5 and L6 vertebrae. The mouse was held firmly by the pelvic girdle in one hand, while the syringe was held in the other hand at an angle of approximately 20° above the vertebral column. The needle was inserted into the tissue to one side of the L6 spinous process, into the groove between the spinous and transverse processes. The needle angle was decreased to about 10°, and the needle slowly advanced forward into the intervertebral space until a pop was felt and there was a visible serpentine tail movement. Compounds were slowly injected in the subarachnoid space in a volume of 5 μl. Each compound was tested at multiple doses. The minimal efficacious dose was used for all subsequent experiments.
Sensitivity to light touch was quantified by scoring the response of mice to light stroking of their flanks with a small paintbrush, which is not normally painful. […] The scores were summed to generate a cumulative score of 0 to 16 as described in Minami et al., Pain 57:217-223 (1994). Statistical calculations of significance for in vivo studies were done using a two-tailed Students t-test.

`Cc1cccc([C@H](C)c2cnc[nH]2)c1C` [Dexmedetomidine]: the “human α2A % E” value in assay [1] is on record as 93%. In assay [2], the “human α2C % E” value is on record as 90%. Moreover, in assay [3], the “bovine α1A % E” value is reported as 59% and the “agonist activity at the α-1A receptor” value is reported as “partial agonists”. In assay [4], the “hamster α1B % E” value is 62% and the “agonist activity at the α-1B receptor” value is recorded as “partial agonists”.

As for `CNC[C@H](O)c1cccc(O)c1` [Phenylephrine], the “strongly tactile hypersensitivity-inducing dose” value in assay [5] (i.p., wildtype mice) stood at 0.03 µg/kg. For the same molecule, the “dose resulting in maximal hypersensitivity” value in assay [5] (i.p., α-2A knockout mice) turned out to be 0.0003 µg/kg; in assay [5] (i.p., α-2C knockout mice), 0.0001 µg/kg. Also, the “dose at which significant tactile hypersensitivity starts” value amounted to 0.003 µg/kg in assay [5] (intraperitoneal, wildtype mice) and 3 ng in assay [5] (intrathecal, wildtype mice). Besides, the “human α2C % E” value in assay [2] is 87%. The “bovine α1A % E” value in assay [3] worked out at 110%. The “hamster α1B % E” value in assay [4] was determined as 110%.

For the molecule `Clc1ccc2nsnc2c1NC1=NCCN1` [Tizanidine], in assay [1], the “human α2A % E” value is recorded as 93%. The “human α2C % E” value in assay [2] came out at 85%. Moreover, in assay [3], the “bovine α1A % E” value amounted to 63% and the “agonist activity at the α-1A receptor” value is on record as “partial agonists”. Also, in assay [4], the “hamster α1B % E” value came to 61% and the “agonist activity at the α-1B receptor” value is “partial agonists”.
